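Where inhibition never reached the appropriate level, the endpoint shown equals the highest concentration tested. Otherwise, values were interpolated linearly from a five-concentration, 48-hour dose response in 96-well plates. At the GI50, growth is halved.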 Activity calls are given as the source filed them. No stated cut-off is given here; in the data, active = GI50 up to about 1.1 µM and inactive = higher.
What was measured:
Experiment in all cases: NCI-60 cell line screen, 48 h
786-0 = test system: 786-0
A498 = test system: A498
A549 = test system: A549
ACHN = test system: ACHN
BT-549 = test system: BT-549
CAKI-1 = test system: CAKI-1
CCRF-CEM = test system: CCRF-CEM
COLO 205 = test system: COLO 205
DU-145 = test system: DU-145
EKVX = test system: EKVX
HCC 2998 = test system: HCC 2998
HCT-116 = test system: HCT-116
HCT-15 = test system: HCT-15
HL-60 = test system: HL-60
HOP-62 = test system: HOP-62
HOP-92 = test system: HOP-92
HT-29 = test system: HT-29
Hs-578T = test system: Hs-578T
IGROV-1 = test system: IGROV-1
K562 = test system: K562
KM12 = test system: KM12
LOX IMVI = test system: LOX IMVI
M14 = test system: M14
MCF7 = test system: MCF7
MDA-MB-231 = test system: MDA-MB-231
MDA-MB-435 = test system: MDA-MB-435
MDA-N = test system: MDA-N
Malme-3M = test system: Malme-3M
NCI-H226 = test system: NCI-H226
NCI-H23 = test system: NCI-H23
NCI-H460 = test system: NCI-H460
NCI-H522 = test system: NCI-H522
NCI/ADR-RES = test system: NCI/ADR-RES
OVCAR-3 = test system: OVCAR-3
OVCAR-4 = test system: OVCAR-4
OVCAR-5 = test system: OVCAR-5
OVCAR-8 = test system: OVCAR-8
PC-3 = test system: PC-3
RPMI-8226 = test system: RPMI-8226
RXF 393 = test system: RXF 393
SF-268 = test system: SF-268
SF-295 = test system: SF-295
SF-539 = test system: SF-539
SK-MEL-28 = test system: SK-MEL-28
SK-MEL-2 = test system: SK-MEL-2
SK-MEL-5 = test system: SK-MEL-5
SK-OV-3 = test system: SK-OV-3
SN12C = test system: SN12C
SNB-19 = test system: SNB-19
SNB-75 = test system: SNB-75
SR = test system: SR
SW-620 = test system: SW-620
T47D = test system: T47D
TK-10 = test system: TK-10
U-251 = test system: U-251
UACC-257 = test system: UACC-257
UACC-62 = test system: UACC-62
UO-31 = test system: UO-31
MOLT-4 = test system: MOLT-4

`CC(=O)n1cc(C2CC23N=C(c2ccccc2)OC3=O)c2ccccc21` (stereo unspecified) was tested, and the GI50 (786-0) was 14.8 µM (inactive), the GI50 (A498) was 22.6 µM (inactive) and the GI50 (A549) was 21.7 µM (inactive). The GI50 (ACHN) was 17.7 µM (inactive), the GI50 (BT-549) was 14.2 µM (inactive) and the GI50 (CAKI-1) was 15.8 µM (inactive). For the same compound, the GI50 (CCRF-CEM) was 1.12 µM (inactive), the GI50 (COLO 205) was 18.4 µM (inactive) and the GI50 (DU-145) was 16 µM (inactive). For the same compound, the GI50 (EKVX) was 21.8 µM (inactive), the GI50 (HCC 2998) was 13.1 µM (inactive) and the GI50 (HCT-116) was 14.4 µM (inactive). The GI50 (HCT-15) was 20.3 µM, the GI50 (HL-60) was 2.04 µM (inactive) and the GI50 (HOP-62) was 21.4 µM (inactive). For the same compound, the GI50 (HOP-92) was 22.1 µM (inactive), the GI50 (HT-29) was 17.9 µM (inactive) and the GI50 (Hs-578T) was 24.1 µM (inactive). The GI50 (IGROV-1) was 16.8 µM (inactive), the GI50 (K562) was 13.7 µM (inactive) and the GI50 (KM12) was 20.2 µM (inactive). For the same compound, the GI50 (LOX IMVI) was 16 µM (inactive), the GI50 (M14) was 16.2 µM (inactive) and the GI50 (MCF7) was 19.1 µM (inactive). For the same compound, the GI50 (MDA-MB-231) was 20.8 µM (inactive), the GI50 (MDA-MB-435) was 21.1 µM (inactive) and the GI50 (MDA-N) was 23.9 µM (inactive). The GI50 (Malme-3M) was 20.6 µM (inactive), the GI50 (NCI-H226) was 23.6 µM (inactive) and the GI50 (NCI-H23) was 16.5 µM (inactive). The GI50 (NCI-H460) was 22.4 µM (inactive), the GI50 (NCI-H522) was 15.3 µM (inactive) and the GI50 (NCI/ADR-RES) was 18.2 µM (inactive). For the same compound, the GI50 (OVCAR-3) was 18 µM (inactive), the GI50 (OVCAR-4) was 16.3 µM (inactive) and the GI50 (OVCAR-5) was 22 µM (inactive). The GI50 (OVCAR-8) was 16.6 µM (inactive), the GI50 (PC-3) was 17.8 µM (inactive) and the GI50 (RPMI-8226) was 7.87 µM (inactive). For the same compound, the GI50 (RXF 393) was 16.3 µM (inactive), the GI50 (SF-268) was 18.3 µM (inactive) and the GI50 (SF-295) was 36.7 µM (inactive). The GI50 (SF-539) was 19.5 µM (inactive), the GI50 (SK-MEL-28) was 19.7 µM (inactive) and the GI50 (SK-MEL-2) was 21.5 µM (inactive). For the same compound, the GI50 (SK-MEL-5) was 17.1 µM (inactive), the GI50 (SK-OV-3) was 49.9 µM (inactive) and the GI50 (SN12C) was 14.7 µM (inactive). For the same compound, the GI50 (SNB-19) was 31.3 µM (inactive), the GI50 (SNB-75) was 19 µM (inactive) and the GI50 (SR) was 10.6 µM (inactive). The GI50 (SW-620) was 19.8 µM (inactive), the GI50 (T47D) was 34.9 µM (inactive) and the GI50 (TK-10) was 20 µM (inactive). The GI50 (U-251) was 18.1 µM (inactive), the GI50 (UACC-257) was 15.7 µM (inactive) and the GI50 (UACC-62) was 16.9 µM (inactive). For the same compound, the GI50 (UO-31) was 15.5 µM (inactive).

With `COc1ccc2nc3cccc([N+](=O)[O-])c3c(NCCC(=O)O)c2c1` the GI50 (786-0) was > 10 µM (inactive), the GI50 (A498) was > 10 µM (inactive) and the GI50 (A549) was > 10 µM (inactive). For the same compound, the GI50 (ACHN) was > 10 µM (inactive), the GI50 (BT-549) was > 10 µM (inactive) and the GI50 (CAKI-1) was > 10 µM (inactive). For the same compound, the GI50 (CCRF-CEM) was 6.67 µM (inactive), the GI50 (COLO 205) was 7.59 µM (inactive) and the GI50 (DU-145) was > 10 µM (inactive). For the same compound, the GI50 (EKVX) was > 10 µM (inactive), the GI50 (HCC 2998) was > 10 µM (inactive) and the GI50 (HCT-116) was > 10 µM (inactive). The GI50 (HCT-15) was > 10 µM, the GI50 (HL-60) was > 10 µM (inactive) and the GI50 (HOP-62) was > 10 µM (inactive). The GI50 (HOP-92) was > 10 µM (inactive), the GI50 (HT-29) was > 10 µM (inactive) and the GI50 (Hs-578T) was 9.14 µM (inactive). The GI50 (IGROV-1) was > 10 µM (inactive), the GI50 (K562) was > 10 µM (inactive) and the GI50 (KM12) was > 10 µM (inactive). The GI50 (LOX IMVI) was > 10 µM (inactive), the GI50 (M14) was > 10 µM (inactive) and the GI50 (MCF7) was 5.78 µM (inactive). For the same compound, the GI50 (MDA-MB-231) was > 10 µM (inactive), the GI50 (MDA-MB-435) was > 10 µM (inactive) and the GI50 (MDA-N) was > 10 µM (inactive). For the same compound, the GI50 (MOLT-4) was 5.22 µM (inactive), the GI50 (Malme-3M) was 4.51 µM (inactive) and the GI50 (NCI-H226) was > 10 µM (inactive). The GI50 (NCI-H23) was > 10 µM (inactive), the GI50 (NCI-H460) was > 10 µM (inactive) and the GI50 (NCI-H522) was 4.56 µM (inactive). The GI50 (NCI/ADR-RES) was > 10 µM (inactive), the GI50 (OVCAR-3) was > 10 µM (inactive) and the GI50 (OVCAR-4) was > 10 µM (inactive). For the same compound, the GI50 (OVCAR-5) was > 10 µM (inactive), the GI50 (OVCAR-8) was > 10 µM (inactive) and the GI50 (PC-3) was > 10 µM (inactive). The GI50 (RPMI-8226) was > 10 µM (inactive), the GI50 (RXF 393) was > 10 µM (inactive) and the GI50 (SF-268) was > 10 µM (inactive). The GI50 (SF-295) was > 10 µM (inactive), the GI50 (SF-539) was > 10 µM (inactive) and the GI50 (SK-MEL-28) was > 10 µM (inactive). For the same compound, the GI50 (SK-MEL-2) was > 10 µM (inactive), the GI50 (SK-MEL-5) was > 10 µM (inactive) and the GI50 (SK-OV-3) was > 10 µM (inactive). The GI50 (SN12C) was > 10 µM (inactive), the GI50 (SNB-19) was > 10 µM (inactive) and the GI50 (SNB-75) was > 10 µM (inactive). The GI50 (SR) was > 10 µM (inactive), the GI50 (SW-620) was > 10 µM (inactive) and the GI50 (T47D) was 7.5 µM (inactive). The GI50 (TK-10) was > 10 µM (inactive), the GI50 (U-251) was > 10 µM (inactive) and the GI50 (UACC-257) was > 10 µM (inactive). The GI50 (UACC-62) was > 10 µM (inactive).

From ChEMBL document CHEMBL1201862, “PubChem BioAssay data set” (2004)
